From patent US10604473B2, “Lipids that increase insulin sensitivity and methods of using the same” (Beth Israel Deaconess Medical Center, Inc., priority 2013, dated 2020)

Legend:
[1] = Serum 5-PAHSA after oral administration; assay type: in vivo, mouse; settings: oral gavage
Protocol: FIG. 56 is a bar graph showing serum 5-PAHSA levels after oral administration of synthesized 5-PAHSA. 3 h after food removal, mice were gavaged with 30 mg/kg body weight (chow-fed) or 45 mg/kg body weight (HFD-fed) of 5-PAHSA. 5 h post gavage, blood was collected via tail vein and serum 5-PAHSA was analyzed by mass spectrometry. n=3 mice per group. Data are expressed as mean±s.e.m. *p<0.05 vs. vehicle treated on the same diet; and δp<0.05 vs. chow vehicle.

isolated rat islets = assay: Insulin release in isolated rat islets; assay type: cell-based; settings: 25 mM glucose in the media
Protocol: Ins1 cells (FIG. 21) or primary rat islet cells (FIG. 22) were seeded in 24 well-plates [˜10^6 cells/well]. At confluence, cells were incubated with Low Serum [2.5%] and Low Glucose [2.5 mM] media for 12 hours. Next, cells were incubated with KRB buffer for 1 h and stimulated with glucose in the presence of 5-PAHSA (FIG. 21) or 9-PAHSA (FIG. 21) for 45 min in KRB. At the end of the stimulation, 100 μL of media was collected and 10 μL was used to quantitate the amount of insulin released by ELISA. Treatment Conditions for FIGS. 21 and 22 were: • 5-PAHSA or 9-PAHSA [Stock]=20.0 mM [10.76 mg/mL Methanol] • A] 1 uM=0.3 uL/6 mL [Amount of methanol/mL=0.05 uL] • B] 5 uM=1.5 uL/6 mL [Amount of methanol/mL=0.25 uL] • C] 10 uM=3.0 uL/6 mL [Amount of methanol/mL=0.50 uL] • D] 20 uM=6.0 uL/6 mL [Amount of methanol/mL=1.00 uL] […]
Isolated rat islets were cultured overnight in RPMI 1640 medium containing 2.5 mM glucose and 2.5% fetal bovine serum supplemented with 100 IU/ml penicillin and 100 IU/ml streptomycin, 1 mM sodium pyruvate, and 10 mM HEPES (pH 7.4). […] At the end of the stimulation supernatant was collected and insulin released into the medium was quantified by ELISA as per manufacturer's protocol. The islets were lysed and protein content was measured and the amount of insulin released into the media was quantitated as ng/mL/μg of protein.

[2] = system: LPS-activated dendritic cells; assay: LPS-induced activation of bone marrow-derived dendritic cells; assay type: cell-based, mouse
Protocol: Mouse bone marrow cells were flushed from the femurs and tibiae. The red blood cells were eliminated and the cells plated at a density of 1.0×10^6 cells/mL in RBMI complete medium containing 10% FCS plus 20 ng/ml GM-CSF. The medium was replaced on day 4, and the cells were harvested on day 6 to obtain immature DCs. To obtain mature DCs, LPS was added to the cultures at a final concentration of 100 ng/mL on day 6, and the cells were cultured for an additional 24 h, as previously described by Macia, L., et al. Impairment of dendritic cell functionality and steady-state number in obese mice. J Immunol 177, 5997-6006 (2006), which is incorporated by reference in its entirety. To test the anti-inflammatory effects of 9-PAHSA, immature BMDC were treated with 9-PAHSA in a dose response dependent manner in the presence of 100 ng/mL of LPS. The activation status of the BMDCs was evaluated by measuring the expression of MHCII and co-stimulatory molecules using Flow Cytometry and by the production of pro-inflammatory cytokines (IL-6, TNF, IL-12 and IL-1β) which was assessed by ELISA.
Mouse bone marrow cells were flushed from the femurs and tibiae. The red blood cells were lysed, and the cells were plated at a density of 0.5×10^6 cells/mL in RPMI 1640 Low medium (Gibco, USA) containing 10% FCS (Gibco, USA) and 20 ng/mL GM-CSF. […]
The immature dendritic cells obtained in the day 6 were maturated with LPS in the presence of different concentrations of 9-PAHSA varying between 100 ng/mL to 20 ug/mL. The cells were maturated for 24 h and the maturation status analyzed by cytokine production and co-stimulatory molecules expression.
The cells were analyzed by Multicolor Flow cytometry. […] The cells were analyzed with an LSR II flow cytometer (BD) and FlowJo software.
An ELISA assay (Biolegend) was used to measure the concentration of IL-12p70 protein in conditioned media from immature and mature BMDCs. This assay allowed for the detection of total IL-12p70 concentrations in the range of 15.6-1,000 pg/ml, and the results are expressed as pg/mL IL-12p70.

Compound	serum 5-PAHSA levels versus chow baseline ([1]; HFD-fed mice)	increase in serum 5-PAHSA levels ([1]; mice on chow (30 mg/kg) and HFD (45 mg/kg), 5 h post gavage)	glucose-stimulated insulin secretion (isolated rat islets)	IL-12 production ([2]; LPS 100 ng/mL)	expression of MHCII and co-stimulatory molecules (CD40, CD80, CD86) ([2]; LPS-induced)	LPS-induced dendritic cell activation ([2]; dose response)
CCCCCCCCCCCCCCCC(=O)OC(CCCCCCCCCCCCC)CCCC(=O)O (stereo not drawn) [5-PAHSA]	more than restored the levels	3-5 fold	potentiates glucose-stimulated insulin secretion	–	–	–
CCCCCCCCCCCCCCCC(=O)OC(CCCCCCCCC)CCCCCCCC(=O)O (stereo not drawn) [9-PAHSA, palmitoyl-9-hydroxystearic acid]	–	–	–	blocks IL-12 production	reducing expression of MHCII and co-stimulatory molecules	prevents LPS-induced dendritic cell activation in a dose dependent manner
